Reference: paper PMC8053501 (Diabetes, Metabolic Syndrome and Obesity: Targets and …, 2021)
“Also recorded” adds a separate entry of the source. Like-named read-outs stand apart in the source and are kept apart here.

Tests used:
[1] = system: diabetes mellitus patients; test: Acute kidney injury; assay type: in vivo, human; settings: for Association with AKI, Unadjusted (95% CI) / Association with AKI, Adjusted (95% CI): metformin as reference; for Association with AKI, Adjusted (95% CI): multivariate; for Association with AKI compared to control drug metformin, in words: multivariate analysis; for Events During the 90 days (AKI): primary endpoint, first 90 days, patients above 55 years; for Events at secondary end (AKI): secondary endpoint, after 90 days of hospital admission; for Total Percent (incidence rate of AKI at the end of the study): share of the 4966 total outcomes; for Total endpoint (AKI events): primary plus secondary endpoint
[2] = for Drug concentration, time course: normal mice, oral gavage, 3mg/kg
in vivo = settings: male, ICR, mouse, po; for Cmax / half-life: oral gavage; for half-life: t1/2, mouse
[3] = Endpoint Diagnosis with 1047 Outcome
[4] = Secondary Diagnosis with 3919 Outcomes

SMILES: CC(C)Cc1ccc(C(C)C(=O)O)cc1 (stereo not shown) [Ibuprofen, ibuprofen]
- Association with AKI, Unadjusted (95% CI) [1, 3]: 3.14 (2.87–3.74)
- Association with AKI, Adjusted (95% CI) [1, 3]: 2.41 (1.91–2.54)
- Association with AKI, Unadjusted (95% CI) [1, 4]: 2.68 (2.21–3.03)
- Association with AKI, Adjusted (95% CI) [1, 4]: 2.36 (1.84–2.93)
- Association with AKI compared to control drug metformin, in words [1]: higher risk for AKI
- Association with AKI compared to control drug metformin, in words ([1]; listed as ibuprofen): increased rate of AKI
- Events During the 90 days (AKI) [1]: 124
- Events at secondary end (AKI) [1]: 433
- Total Percent (incidence rate of AKI at the end of the study) [1]: 11.22%
- Drug concentration, time course ([2]; Kidney, 0h): 0
- Drug concentration, time course ([2]; Kidney, 6h): 16,500
- Drug concentration, time course ([2]; Kidney, 9h): 9500
- Drug concentration, time course ([2]; Kidney, 12h): 3500
- Drug concentration, time course ([2]; Kidney, 15h): 1000
- Drug concentration, time course ([2]; Kidney, 18h): 200
- Drug concentration, time course ([2]; Kidney, 21h): 100
- Drug concentration, time course ([2]; Kidney, 24h): 0
- Drug concentration, time course ([2]; Liver, 0h): 0
- Drug concentration, time course ([2]; Liver, 3h): 9500
- Drug concentration, time course ([2]; Liver, 6h): 7600
- Drug concentration, time course ([2]; Liver, 9h): 1800
- Drug concentration, time course ([2]; Liver, 12h): 600
- Drug concentration, time course ([2]; Liver, 15h): 150
- Drug concentration, time course ([2]; Liver, 18h): 0
- Drug concentration, time course ([2]; Liver, 21h): 0
- Drug concentration, time course ([2]; Liver, 24h): 0
- Drug concentration, time course ([2]; Plasma, 0h): 0
- Drug concentration, time course ([2]; Plasma, 3h): 600
- Drug concentration, time course ([2]; Plasma, 6h): 400
- Drug concentration, time course ([2]; Plasma, 9h): 140
- Drug concentration, time course ([2]; Plasma, 12h): 0
- Drug concentration, time course ([2]; Plasma, 15h): 0
- Drug concentration, time course ([2]; Plasma, 18h): 0
- Drug concentration, time course ([2]; Plasma, 21h): 0
- Drug concentration, time course ([2]; Plasma, 24h): 0
- Tmax (in vivo): 1 h
- Tmax (in vivo; 3 mg/kg): 1 h

SMILES: COc1ccc2c(c1)c(CC(=O)O)c(C)n2C(=O)c1ccc(Cl)cc1 [Indomethacin, indomethacin]
- Association with AKI, Unadjusted (95% CI) [1, 3]: 2.81 (2.32–2.94)
- Association with AKI, Adjusted (95% CI) [1, 3]: 2.29 (2.05–2.65)
- Association with AKI, Unadjusted (95% CI) [1, 4]: 2.45(2.09–2.54)
- Association with AKI, Adjusted (95% CI) [1, 4]: 2.63 (2.41–2.72)
- Association with AKI compared to control drug metformin, in words [1]: increased rate of AKI; also recorded: higher risk for AKI
- Events During the 90 days (AKI) [1]: 106
- Total endpoint (AKI events) [1]: 497
- Events at secondary end (AKI) [1]: 391
- Total Percent (incidence rate of AKI at the end of the study) [1]: 10.01%
- Tmax determined from the drug concentration in kidney and plasma (and liver) ([2]; mouse, tissue not separated): 1 h
- Drug concentration, time course ([2]; Kidney, 0h): 0
- Drug concentration, time course ([2]; Kidney, 3h): 8240
- Drug concentration, time course ([2]; Kidney, 6h): 5200
- Drug concentration, time course ([2]; Kidney, 9h): 3880
- Drug concentration, time course ([2]; Kidney, 12h): 700
- Drug concentration, time course ([2]; Kidney, 15h): 250
- Drug concentration, time course ([2]; Kidney, 18h): 0
- Drug concentration, time course ([2]; Kidney, 21h): 0
- Drug concentration, time course ([2]; Kidney, 24h): 0
- Drug concentration, time course ([2]; Liver, 0h): 0
- Drug concentration, time course ([2]; Liver, 3h): 10,300
- Drug concentration, time course ([2]; Liver, 6h): 8700
- Drug concentration, time course ([2]; Liver, 9h): 5400
- Drug concentration, time course ([2]; Liver, 12h): 1200
- Drug concentration, time course ([2]; Liver, 15h): 150
- Drug concentration, time course ([2]; Liver, 18h): 0
- Drug concentration, time course ([2]; Liver, 21h): 0
- Drug concentration, time course ([2]; Liver, 24h): 0
- Drug concentration, time course ([2]; Plasma, 0h): 0
- Drug concentration, time course ([2]; Plasma, 3h): 300
- Drug concentration, time course ([2]; Plasma, 6h): 100
- Drug concentration, time course ([2]; Plasma, 9h): 50
- Drug concentration, time course ([2]; Plasma, 12h): 0
- Drug concentration, time course ([2]; Plasma, 15h): 0
- Drug concentration, time course ([2]; Plasma, 18h): 0
- Drug concentration, time course ([2]; Plasma, 21h): 0
- Drug concentration, time course ([2]; Plasma, 24h): 0
- Tmax (in vivo; 3 mg/kg): 1 h
- Cmax (in vivo; 3 mg/kg, Kidney): 10300 ng/mL
- Cmax (in vivo; 3 mg/kg, Liver): 9650 ng/mL
- Cmax (in vivo; 3 mg/kg, Plasma): 1170 ng/mL
- half-life (in vivo; 3 mg/kg, Kidney): 3.8 h
- half-life (in vivo; 3 mg/kg, Liver): 3.1 h
- half-life (in vivo; 3 mg/kg, Plasma): 2.7 h

SMILES: OC[C@H]1O[C@@H](c2ccc(F)c(Cc3cc4ccccc4s3)c2)[C@H](O)[C@@H](O)[C@@H]1O [Ipragliflozin, ipragliflozin]
- Association with AKI, Unadjusted (95% CI) [1, 3]: 0.78 (0.61–1.08)
- Association with AKI, Adjusted (95% CI) [1, 3]: 0.86 (0.69–1.31)
- Association with AKI, Unadjusted (95% CI) [1, 4]: 0.84 (0.69–1.16)
- Association with AKI, Adjusted (95% CI) [1, 4]: 0.95 (0.62–1.45)
- Events During the 90 days (AKI) [1]: 58
- Total endpoint (AKI events) [1]: 269
- Events at secondary end (AKI) [1]: 211
- Total Percent (incidence rate of AKI at the end of the study) [1]: 5.42%
- Drug concentration, time course ([2]; Kidney, 0h): 0
- Drug concentration, time course ([2]; Kidney, 3h): 16,700
- Drug concentration, time course ([2]; Kidney, 6h): 14,500
- Drug concentration, time course ([2]; Kidney, 9h): 8000
- Drug concentration, time course ([2]; Kidney, 12h): 4500
- Drug concentration, time course ([2]; Kidney, 15h): 3000
- Drug concentration, time course ([2]; Kidney, 18h): 1500
- Drug concentration, time course ([2]; Kidney, 21h): 1000
- Drug concentration, time course ([2]; Kidney, 24h): 850
- Drug concentration, time course ([2]; Liver, 0h): 0
- Drug concentration, time course ([2]; Liver, 3h): 7500
- Drug concentration, time course ([2]; Liver, 6h): 6000
- Drug concentration, time course ([2]; Liver, 9h): 1200
- Drug concentration, time course ([2]; Liver, 12h): 300
- Drug concentration, time course ([2]; Liver, 15h): 50
- Drug concentration, time course ([2]; Liver, 18h): 0
- Drug concentration, time course ([2]; Liver, 21h): 0
- Drug concentration, time course ([2]; Liver, 24h): 0
- Drug concentration, time course ([2]; Plasma, 0h): 0
- Drug concentration, time course ([2]; Plasma, 3h): 300
- Drug concentration, time course ([2]; Plasma, 6h): 250
- Drug concentration, time course ([2]; Plasma, 9h): 30
- Drug concentration, time course ([2]; Plasma, 12h): 0
- Drug concentration, time course ([2]; Plasma, 15h): 0
- Drug concentration, time course ([2]; Plasma, 18h): 0
- Drug concentration, time course ([2]; Plasma, 21h): 0
- Drug concentration, time course ([2]; Plasma, 24h): 0
- Tmax (in vivo): 0.5 h
- Tmax (in vivo; 3 mg/kg): 0.5 h
- Cmax (in vivo; 3 mg/kg, Kidney): 4140 ng/mL
- Cmax (in vivo; 3 mg/kg, Liver): 3040 ng/mL
- Cmax (in vivo; 3 mg/kg, Plasma): 975 ng/mL
- half-life (in vivo; 3 mg/kg, Kidney): 2.3 h
- half-life (in vivo; 3 mg/kg, Liver): 1.5 h
- half-life (in vivo; 3 mg/kg, Plasma): 1.6 h
